As a reminder, the Ki is the dissociation constant of the complex between target and ligand, obtained from inhibition or displacement. A higher Ki goes with lower affinity.

The structures appear in SMILES notation.

Data on ten molecules can be found in ChEMBL document CHEMBL1138013, “Parallel methods for the preparation and SAR exploration of N-ethyl-4-[(8-alkyl-8-aza-bicyclo[3.2.1]oct-3-ylidene)-aryl-methyl]-benzamides, powerful mu and delta opioid agonists” (Bioorg Med Chem Lett, 2004).

The target of one experiment is Mu-type opioid receptor (Mus musculus, UniProt P42866). As to the kind of experiment: Binding affinity against mu opioid receptor […].
The nature of experiment [1]: Binding affinity against delta opioid receptor […]. Details: species or system Mus musculus.
Experiment [2] concerns the target Mu-type opioid receptor (Mus musculus) (UniProt P42866). The experiment can be described thus: Ratio of binding affinity against mu to that of delta opioid receptor.

Mu-type opioid receptor, sequence (P42866 whole entry): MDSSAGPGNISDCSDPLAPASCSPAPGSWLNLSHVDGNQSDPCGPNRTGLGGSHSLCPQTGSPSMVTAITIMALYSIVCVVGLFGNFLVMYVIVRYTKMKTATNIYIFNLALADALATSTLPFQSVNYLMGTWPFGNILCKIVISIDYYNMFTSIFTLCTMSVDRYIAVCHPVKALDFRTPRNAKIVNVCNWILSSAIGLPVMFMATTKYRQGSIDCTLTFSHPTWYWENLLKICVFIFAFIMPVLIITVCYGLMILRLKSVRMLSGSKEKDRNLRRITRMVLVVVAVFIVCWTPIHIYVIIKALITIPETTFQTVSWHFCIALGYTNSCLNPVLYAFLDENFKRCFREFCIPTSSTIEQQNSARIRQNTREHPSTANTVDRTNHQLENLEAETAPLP
Mu-type opioid receptor (Mus musculus), sequence (P42866 whole entry): as above

Turning to `CCNC(=O)c1ccc(C(=C2CC3CCC(C2)N3Cc2ccoc2)c2cnc3ccccc3c2)cc1`, the figures for the inhibition constant (Ki) (at Mu-type opioid receptor; in experiment [1]) were 4 nM and 20 nM, respectively. In addition, in experiment [2], the Ratio is 0.2.

Turning to `CCNC(=O)c1ccc(C(=C2CC3CCC(C2)N3Cc2ccoc2)c2cccc(C#N)c2)cc1`, the Ki turned out to be 3.3 nM on Mu-type opioid receptor and 0.6 nM in experiment [1]. The Ratio in experiment [2] is 5.5.

With `CCNC(=O)c1ccc(C(=C2CC3CCC(C2)N3Cc2ccoc2)c2ccc([N+](=O)[O-])cc2)cc1`, the Ki worked out at 1.5 nM at Mu-type opioid receptor and 0.23 nM in experiment [1]. Also, the Ratio in experiment [2] came out at 6.5.

Turning to `CCNC(=O)c1ccc(C(=C2CC3CCC(C2)N3CCc2ccccc2)c2ccccc2)cc1`, the inhibitory constant (Ki) on Mu-type opioid receptor came out at 72 nM; in experiment [1] it was 0.24 nM. In experiment [2], the Ratio turned out to be 300.

For `CCNC(=O)c1ccc(C(=C2CC3CCC(C2)N3Cc2ccoc2)c2nnn[nH]2)cc1`, the inhibition constant (Ki) amounted to 83 nM at Mu-type opioid receptor and 210 nM in experiment [1]. Moreover, the Ratio in experiment [2] is 0.4.

In the case of `CCNC(=O)c1ccc(C(=C2CC3CCC(C2)N3Cc2ccoc2)c2ccc(NC(C)=O)cc2)cc1`, the Ki at Mu-type opioid receptor amounted to 0.8 nM; in experiment [1], 0.34 nM. In experiment [2], the Ratio was determined as 2.4.

For the molecule `CCNC(=O)c1ccc(C(=C2CC3CCC(C2)N3Cc2ccoc2)c2cccc(C(C)=O)c2)cc1`, the figures for the Ki (on Mu-type opioid receptor; in experiment [1]) were 1.3 nM and 0.4 nM, respectively. Besides, the Ratio in experiment [2] was found to be 3.3.

Turning to `CCNC(=O)c1ccc(C(=C2CC3CCC(C2)N3Cc2ccoc2)c2cccc(CN)c2)cc1`, the Ki on Mu-type opioid receptor was determined as 71 nM; in experiment [1], 20 nM. Further, the Ratio in experiment [2] worked out at 3.6.

`CCNC(=O)c1ccc(C(=C2CC3CCC(C2)N3Cc2ccoc2)c2cccc(N)c2)cc1`: the results for the Ki (on Mu-type opioid receptor; in experiment [1]) were 2.6 nM and 2 nM, respectively. In addition, the Ratio in experiment [2] was found to be 1.3.

For the molecule `C=C(C)CCN1C2CCC1CC(=C(c1ccc(C(=O)NCC)cc1)c1ccco1)C2`, the Ki was determined as 6.3 nM on Mu-type opioid receptor and 5.6 nM in experiment [1]. For the same molecule, the Ratio in experiment [2] amounted to 1.1.
